Reference: patent US20240254118A1, “PRMT5 INHIBITORS AND USES THEREOF” (Gilead Sciences, Inc., priority 2022, published 2024)
pEC50: −log10 of the molar value.

Experiments:
[1] = system: SDMA signal (PRMT5 inhibition) in HCT116 MTAP-deleted cells; experiment: Symmetric di-methyl arginine image-based high content screen assay (SDMA assay), HCT116 MTAP-deleted; format: cell-based; conditions: SDMA assay; for pEC50: Homo sapiens, HCT-116, 72 h, 3 days of treatment, cell line not given, taken as HCT116 MTAP-deleted, read-out: EC50 (SDMA assay)
Outline: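 HCT116 MTAP-deleted cells treated with compound until Day 3, then formalin-fixed, permeabilized and immunostained for SDMA, with DAPI nuclear counterstain. Imaged by high-content microscopy; SDMA read-out is mean Alexa 488 intensity per DAPI-defined cell, reflecting PRMT5 inhibition.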

[2] = system: HCT116 MTAP-deleted cells; experiment: Cell viability assay (CellTiter-Glo, 7 days), HCT116 MTAP-deleted; conditions: Homo sapiens, HCT-116, 168 h
Description: Control compounds were analyzed in parallel each time for quality control.
In Brief, on Day −1, a serial dilution of stock compounds in DMSO was performed using BioMek liquid handlers and dispensed using Echo acoustic dispenser into 384 well plates. Both tool compounds and sample compounds were spotted in the same plate for a dose response of PRMT5 inhibitors. Compound plates were stored as frozen until the cells were ready for seeding.
On Day 0, 100 HCT WT or HCT116 MTAP-deleted cells were seeded in compound-containing 384 well plates (50 μl per well) in RPMI 1640 media supplemented with 10% heat inactivated fetal bovine serum, Glutamax and penicillin streptomycin using EL460 liquid dispenser 5 μl cassette (BioTek, part no. 7170011). After equilibrating the plate in room temperature, the cells were incubated for 7 days inside the sealed incubator set at 37 °C with 90% humidity and 5% CO2.
On Day 7, the viability of cells was measured using a CTG assay kit (CellTitre-Glo; Promega cat no. G7573). Shortly, 40 μl per well of luminescent cell viability assay reagent were dispensed using EL460 liquid dispenser 5 μl cassette. CTG luminescence signal was measured using an EnVision plate reader (PerkinElmer) in accordance with manufacturer's instruction. The CC50 values for each compound after 7 days of treatment were calculated using 4 parameter non-linear logistical curve fit.

[3] = taken as HCT116 WT versus MTAP-deleted
[4] = taken as HCT116 WT vs MTAP-deleted

SMILES | pEC50 [1] | EC50 selectivity (SDMA assay) [1, 3] | CC50 [2] [nM] | EC50 selectivity (SDMA assay) [1, 4]
CN(C(=O)C12CC(C1)C2)N(Cc1ccc2ncsc2c1)C(=O)c1ccc2nc(N)c3cnn(C)c3c2c1 [Example 338, 4-amino-N-(benzo[d]thiazol-6-ylmethyl)-N′-(bicyclo[1.1.1]pentane-1-carbonyl)-N′,1-dimethyl-1H-pyrazolo[4,3-c]quinoline-8-carbohydrazideide] | > 9.00 | 373 | < 100 | –
CC(=O)N(C)N(Cc1ccc(-c2ccc(C(F)(F)F)nc2)cc1F)C(=O)c1ccc2nc(N)c3cnn(C)c3c2c1 [Example 229, N′-acetyl-4-amino-N-(2-fluoro-4-(6-(trifluoromethyl)pyridin-3-yl)benzyl)-N′,1-dimethyl-1H-pyrazolo[4,3-c]quinoline-8-carbohydrazide] | 8.30 to 9.00 | 43 | < 100 | –
CC(=O)N(C)N(Cc1ccc(C(F)(F)F)cn1)C(=O)c1cc2c(cc1F)nc(N)c1cnn(C)c12 [Example 34, N′-acetyl-4-amino-7-fluoro-N′, 1-dimethyl-N-[[5-(trifluoromethyl)-2-pyridyl]methyl]pyrazolo[4,3-c]quinoline-8-carbohydrazide] | 8.30 to 9.00 | 8 | < 100 | –
Cn1ncc2c(N)nc3ccc(C(=O)N(Cc4ccc(C(F)(F)F)cn4)NC(=O)C4CC4)cc3c21 [Example 443, 4-amino-N′-(cyclopropanecarbonyl)-1-methyl-N-((5-(trifluoromethyl)pyridin-2-yl)methyl)-1H-pyrazolo[4,3-c]quinoline-8-carbohydrazide] | > 9.00 | – | < 100 | 400
CC(=O)N(C)N(Cc1nc2ccc(F)cc2s1)C(=O)c1cc2c(cc1F)nc(N)c1cnn(C)c12 [Example 214, N′-acetyl-4-amino-7-fluoro-N-[(6-fluoro-1,3-benzothiazol-2-yl)methyl]-N′,1-dimethyl-pyrazolo[4,3-c]quinoline-8-carbohydrazide] | > 9.00 | 74 | < 100 | –
Cn1ncc2c(N)nc3ccc(C(=O)N(Cc4ccc(C(F)(F)F)cn4)n4ccc5cccnc54)cc3c21 [Example 295, 4-amino-1-methyl-N-(1H-pyrrolo[2,3-b]pyridin-1-yl)-N-((5-(trifluoromethyl)pyridin-2-yl)methyl)-1H-pyrazolo[4,3-c]quinoline-8-carboxamide] | > 9.00 | 18 | < 100 | –
Cn1ncc2c(N)nc3ccc(C(=O)N(Cc4ccc(C(F)(F)F)cn4)N4CCC(F)(F)C4=O)cc3c21 [Example 171, 4-amino-N-(3,3-difluoro-2-oxo-pyrrolidin-1-yl)-1-methyl-N-[[5-(trifluoromethyl)-2-pyridyl]methyl]pyrazolo[4,3-c]quinoline-8-carboxamide] | > 9.00 | 571 | < 100 | –
Nc1nc2ccc(C(=O)N(Cc3ccc(C(F)(F)F)cn3)Nc3ncccn3)cc2c2ccccc12 [Example 76, 6-amino-N′-(pyrimidin-2-yl)-N-((5-(trifluoromethyl)pyridin-2-yl)methyl)phenanthridine-2-carbohydrazide] | 8.30 to 9.00 | 204 | 100 to 1000 | –
CCC(=O)N(C)N(Cc1ncc(C(F)(F)F)cc1F)C(=O)c1ccc2nc(N)c3cnn(C)c3c2c1 [Example 265, 4-amino-N-((3-fluoro-5-(trifluoromethyl)pyridin-2-yl)methyl)-N′,1-dimethyl-N′-propionyl-1H-pyrazolo[4,3-c]quinoline-8-carbohydrazide] | > 9.00 | 209 | < 100 | –
COC(=O)N(C)N(Cc1ccc(C(F)(F)F)cn1)C(=O)c1ccc2nc(N)c3cnn(C)c3c2c1 [Example 253, methyl 2-(4-amino-1-methyl-1H-pyrazolo[4,3-c]quinoline-8-carbonyl)-1-methyl-2-((5-(trifluoromethyl)pyridin-2-yl)methyl)hydrazine-1-carboxylate] | > 9.00 | 28 | < 100 | –
CC(=O)N(C)N(Cc1cccc2c1OC(F)(F)O2)C(=O)c1cc2c(cc1F)nc(N)c1cnn(C)c12 [Example 301, N′-acetyl-4-amino-N-((2,2-difluorobenzo[d][1,3]dioxol-4-yl)methyl)-7-fluoro-N′,1-dimethyl-1H-pyrazolo[4,3-c]quinoline-8-carbohydrazide] | > 9.00 | 106 | < 100 | –
CC(=O)N(C)N(Cc1sc2ccccc2c1Br)C(=O)c1ccc2nc(N)c3cnn(C)c3c2c1 [Example 444, N′-acetyl-4-amino-N-((3-bromobenzo[b]thiophen-2-yl)methyl)-N′,1-dimethyl-1H-pyrazolo[4,3-c]quinoline-8-carbohydrazide] | > 9.00 | – | < 100 | 117
CC(NN(Cc1ccc(C(F)(F)F)cn1)C(=O)c1ccc2nc(N)c3cnn(C)c3c2c1)C(F)(F)F (stereo not drawn) [Example 405, 4-amino-1-methyl-N-((5-(trifluoromethyl)pyridin-2-yl)methyl)-N′-(1,1,1-trifluoropropan-2-yl)-1H-pyrazolo[4,3-c]quinoline-8-carbohydrazide] | > 9.00 | – | < 100 | 154
Cn1ncc2c(N)nc3cc(F)c(C(=O)N(Cc4ccc(C(F)(F)F)cn4)N4CCOC4=O)cc3c21 [Example 145, 4-amino-7-fluoro-1-methyl-N-(2-oxooxazolidin-3-yl)-N-[[5-(trifluoromethyl)-2-pyridyl]methyl]pyrazolo[4,3-c]quinoline-8-carboxamide] | > 9.00 | 45 | < 100 | –
CC(=O)N(C)N(Cc1ccc(-c2cnn(C(F)(F)F)c2)cc1F)C(=O)c1ccc2nc(N)c3cnn(C)c3c2c1 [Example 222, N′-acetyl-4-amino-N-(2-fluoro-4-(1-(trifluoromethyl)-1H-pyrazol-4-yl)benzyl)-N′,1-dimethyl-1H-pyrazolo[4,3-c]quinoline-8-carbohydrazide] | > 9.00 | 123 | < 100 | –
CN(C(=O)[C@H]1C[C@H]1F)N(Cc1ncc(C(F)(F)F)cc1F)C(=O)c1ccc2nc(N)c3cnn(C)c3c2c1 [Example 262, 4-amino-N-((3-fluoro-5-(trifluoromethyl)pyridin-2-yl)methyl)-N′-((1R,2R)-2-fluorocyclopropane-1-carbonyl)-N′,1-dimethyl-1H-pyrazolo[4,3-c]quinoline-8-carbohydrazide] | 8.30 to 9.00 | 169 | < 100 | –
CN(C(=O)C1CC1)N(Cc1cc(F)c(-c2cnn(C(F)(F)F)c2)cc1F)C(=O)c1ccc2nc(N)c3cnn(C)c3c2c1 [Example 311, 4-amino-N′-(cyclopropanecarbonyl)-N-(2,5-difluoro-4-(1-(trifluoromethyl)-1H-pyrazol-4-yl)benzyl)-N′,1-dimethyl-1H-pyrazolo[4,3-c]quinoline-8-carbohydrazide] | 8.30 to 9.00 | 58 | < 100 | –
Cn1ncc2c(N)nc3ccc(C(=O)N(Cc4nc5cc(C(F)(F)F)ccc5s4)N4CCOC4=O)cc3c21 [Example 89, 4-Amino-1-methyl-N-(2-oxooxazolidin-3-yl)-N-[[5-(trifluoromethyl)-1,3-benzothiazol-2-yl]methyl]pyrazolo[4,3-c]quinoline-8-carboxamide] | > 9.00 | 204 | < 100 | –
CC(C)C(=O)N(C)N(Cc1ccc(C(F)(F)F)cn1)C(=O)c1ccc2nc(N)c3cnn(C)c3c2c1 [Example 120, 4-amino-N′-isobutyryl-N′,1-dimethyl-N-((5-(trifluoromethyl)pyridin-2-yl)methyl)-1H-pyrazolo[4,3-c]quinoline-8-carbohydrazide] | > 9.00 | 542 | < 100 | –
Cn1ncc2c(N)nc3ccc(C(=O)N(Cc4ccc(C(F)(F)F)cn4)N4CCCC4)cc3c21 [Example 27, 4-amino-1-methyl-N-pyrrolidin-1-yl-N-[[5-(trifluoromethyl)-2-pyridyl]methyl]pyrazolo[4,3-c]quinoline-8-carboxamide] | > 9.00 | 94 | < 100 | –
[2H]C([2H])([2H])N(C(C)=O)N(Cc1ccc(C(F)(F)F)cc1F)C(=O)c1ccc2nc(N)c3cnn(C([2H])([2H])[2H])c3c2c1 [Example 266, N′-acetyl-4-amino-N-(2-fluoro-4-(trifluoromethyl)benzyl)-N′,1-bis(methyl-d3)-1H-pyrazolo[4,3-c]quinoline-8-carbohydrazide] | > 9.00 | 63 | < 100 | –
CCC(=O)N(C)N(Cc1ccc(C(F)(F)F)cn1)C(=O)c1ccc2nc(N)c3cnn(C)c3c2c1 [Example 41, 4-amino-N′, 1-dimethyl-N′-propanoyl-N-[[5-(trifluoromethyl)-2-pyridyl]methyl]pyrazolo[4,3-c]quinoline-8-carbohydrazide] | > 9.00 | 46 | < 100 | –
CC(=O)N(C)N(Cc1cc2cccc(C(F)(F)F)c2s1)C(=O)c1ccc2nc(N)c3cnn(C)c3c2c1 [Example 419, N′-acetyl-4-amino-N′,1-dimethyl-N-((7-(trifluoromethyl)benzo[b]thiophen-2-yl)methyl)-1H-pyrazolo[4,3-c]quinoline-8-carbohydrazide] | 8.30 to 9.00 | – | < 100 | 118
